Data on eight molecules can be found in patent US4663340A, “Alpha-adrenoreceptor agonistic 2-[(2-cyclopropyl-5-methyl- or 2-cyclopropyl-5-chlorophenoxy)methyl]-2-imidazolines” (priority 1984, dated 1987).

“Also recorded” adds a separate entry of the source.

Data set [1] has as its system presynaptic α2-adrenoceptor. Description: Presynaptic α2-adrenoceptor antagonist activity: restoration of tachycardia reduced by clonidine in pithed rat. To be noted: for Heartbeat frequency under electric stimulation (supramaximal tachycardia): before clonidine and tested substance; for Heartbeat frequency under electric stimulation and after clonidine: clonidine 40 μg/kg, I.V., before tested substance; for restoration of submaximal tachycardia / presynaptic α2-adrenoceptor antagonist activity: in words, after clonidine 40 μg/kg I.V.

For data set [2], the system named is postsynaptic α1-adrenoceptor. Description: Vasoconstrictor (hypertensive) dose-response in anaesthetized pithed rat, i.v. Format: in vivo, Wistar rat. To be noted: for Relative power towards Cirazoline: Table I; for Relative power towards Cirazoline / ED50 / potency relative to Cirazoline / potency relative to Fenoxazoline: pithed rat; for ED50 (before antagonists): Table II, before administration of antagonists; for ED50: dose of base inducing 50% of maximal response. An excerpt: (§1) (1) The vaso-constrictor properties and potency of the compounds (I) object of the present invention have been investigated and quantified in the anaesthetized pithed rat by determination of their dose-[…] response curves after intravenous administration, according to the technique described by Shipley and Tilden (Proceedings of Society of Experimental Biology, 1947, 64, pages 453-455). This technique allows assessment of the postsynaptic α-adrenoceptor agonist properties of a drug. […] For each of these drugs, log of cumulative doses-hypertensive response curves after intravenous administration have been drawn in groups of eight Wistar rats, anaesthetized, pithed, bilaterally vagotomized, atropinized and treated with d-tribocurarine. ED50 s (doses in mg/kg of the base inducing 50% of the maximal response) were then calculated for each drug and compared to those of the reference compounds.
Table I reports the values of these ED50 s. It appears from this table that compounds ND 83201 and ND 83204 are the most powerful vaso-constrictor agents, their potency being about 1.75 times that of Cirazoline and three times that of Fenoxazoline.

Data set [3] concerns postsynaptic α1-adrenoceptor. Description: Vasoconstrictor effect in pithed rat after specific postsynaptic α1-adrenoceptor antagonist prazosine. Format: in vivo, Wistar rat. Particulars: for ED50 after prazosine: I.V.
Source text: as §1
(§2) For each of the three drugs log of cumulative doses-hypertensive response curves after intravenous administration have been drawn and their ED50 s (in μg per kg) were calculated before and after administration of the antagonists in groups of 8 animals each.

Data set [4] concerns postsynaptic α1-adrenoceptor. To be noted: literature; cited from earlier work.
In a further data set the test system is α1-adrenoceptor. Description: Vasoconstrictor effect in pithed rat after reserpine pre-treatment (direct action). Format: in vivo, Wistar rat. Particulars: except in very high doses.
Source text: as §1
(a) ND 83201 is a directly acting α1 -adrenoceptor agonist.

The nature of data set [5]: Stability of aqueous solution (hydrolysis of the imidazoline cycle). Format: physicochemical. To be noted: 1 per mill aqueous solution, room temperature.
The subject of data set [6] is presynaptic α2-adrenoceptor. Description: Presynaptic α2-adrenoceptor agonist activity: reduction of induced submaximal tachycardia in pithed rat. It is filed as in vivo, Wistar rat. Particulars: for effect on induced submaximal tachycardia / presynaptic α2-adrenoceptor agonist activity: electrically stimulated spinal cord.
For data set [7], the system named is postsynaptic α2-adrenoceptor. Description: Vasoconstrictor effect in pithed rat after specific postsynaptic α2-adrenoceptor antagonist yohimbine. Format: in vivo, Wistar rat. To be noted: for ED50 after yohimbine: I.V.; for ED50 after yohimbine / antagonism of vasoconstrictor effect by yohimbine / ED50 after / ED50 before yohimbine: yohimbine 60 μg/kg/min./5 mins.; for postsynaptic α2-adrenoceptor agonist properties / antagonism of vasoconstrictor effect by yohimbine: in words.
Source text: as §1, §2

A short description of another data set: Solubility in water. It is filed as physicochemical. Particulars: hydrochloride.
The subject of a further data set is β-adrenoceptor. Description: Vasoconstrictor ED50 after β-adrenoceptor antagonist pretreatment (β-adrenoceptor postsynaptic agonist activity). Format: in vivo, Wistar rat. Particulars: propranold 150 μg/kg/min/5 min. From the text:
(d) ND 83201 has no β-adrenoceptor postsynaptic agonist activity.

A word on the ED50: it is the dose at which the effect has come halfway, by size or by number of responders. Read a low ED50 as greater potency. Consider `c1ccc(C2CC2)c(OCC2=NCCN2)c1` [Cirazoline, (2'-cyclopropyl)-2-phenyloxymethyl-Δ2-imidazoline], for which, in data set [1], the “Heartbeat frequency under electric stimulation (supramaximal tachycardia)” value (from here on “Heartbeat frequency … (supramaximal tachycardia)”) came to 452.1 ± 10.5; the “Heartbeat frequency under electric stimulation and after clonidine” value (shortened to “Heartbeat frequency … after clonidine”) came out at 395.7 ± 14.1; the “restoration of submaximal tachycardia / presynaptic α2-adrenoceptor antagonist activity” value was “neither and no effect and no”. For the same molecule, in data set [2], the “Relative power towards Cirazoline” value worked out at 1, the “ED50 (before antagonists)” value was 1.105 ± 0.132 µg/kg and the median effective dose (ED50) turned out to be 1.105 ± 0.132 µg/kg. In addition, in [3] (prazosine 20 μg/kg/min./5 min.), the ED50 after prazosine is 8.568 ± 0.721 µg/kg and the “ED50 after / ED50 before prazosine” value is 7.75. Further, the “nature of agonist effect (postsynaptic α1-adrenoceptor)” value in data set [3] (in words) is “specific and direct postsynaptic α1 -adrenoceptor agonist effects”. Besides, in data set [4], the “known vasoconstrictor / postsynaptic α1-adrenoceptor agonist activity” value was “the most powerful and specific postsynaptic α1-adrenoceptor agonist known up to now; also recorded: powerful nasal vasoconstrictor”. Further, the “effect of reserpine pre-treatment on vasoconstrictor effects” value (“effect of reserpine pre-treatment” for short) in the data set with α1-adrenoceptor is given as “not, except in very high doses, modified”. Further, in data set [5], the “appearance of hydrolysis product (amino-amide (V)) in aqueous solution” value is “after a few days the appearance of the cleaving product by hydrolysis of the imidazoline cycle”. The “effect on induced submaximal tachycardia / presynaptic α2-adrenoceptor agonist activity” value in [6] was “completey devoid of any presynaptic α2 -adrenoceptor agonist activity and no”. For the same molecule, in [7], the ED50 after yohimbine came to 1.180 ± 0.108 µg/kg, the “postsynaptic α2-adrenoceptor agonist properties” value is given as “no postsynaptic α2-adrenoceptor agonist”, the “antagonism of vasoconstrictor effect by yohimbine” value is listed as “almost not antagonized by yohimbine” and the “ED50 after / ED50 before yohimbine” value is 1.05.

For `CC(C)c1ccccc1OCC1=NCCN1` [Fenoxazoline], in data set [2], the “Relative power towards Cirazoline” value was found to be 0.62, the “ED50 (before antagonists)” value was 1.790 ± 0.147 µg/kg and the ED50 worked out at 1.790 ± 0.147 µg/kg. In data set [3] (prazosine 20 μg/kg/min./5 min.), the ED50 after prazosine amounted to 16.205 ± 1.240 µg/kg and the “ED50 after / ED50 before prazosine” value was determined as 9.05. The “known vasoconstrictor / postsynaptic α1-adrenoceptor agonist activity” value in [4] is given as “postsynaptic α1 -adrenoceptor agonist”. The “effect of reserpine pre-treatment” value with α1-adrenoceptor was “not, except in very high doses, modified”. Also, in data set [7], the ED50 after yohimbine was 1.804 ± 0.237 µg/kg, the “antagonism of vasoconstrictor effect by yohimbine” value is listed as “almost not antagonized by yohimbine” and the “ED50 after / ED50 before yohimbine” value came out at 1.01.

As for `Brc1ccc(C2CC2)c(OCC2=NCCN2)c1` [ND 83 202, (5'-bromo-2'-cyclopropyl)-2-phenoxymethyl-Δ2-imidazoline], in [2], the “Relative power towards Cirazoline” value is 0.25 and the ED50 amounted to 4.422 ± 0.329 µg/kg.

As to `CCCCCc1ccc(C2CC2)c(OCC2=NCCN2)c1` [ND 83 203, (5'-n-pentyl-2'-cyclopropyl)-2-phenyloxymethyl-Δ2-imidazoline], in [2], the “Relative power towards Cirazoline” value came out at 0.015 and the ED50 worked out at 74.182 ± 6.667 µg/kg.

For `Clc1ccc(C2CC2)c(OCC2=NCCN2)c1` [ND 83 204, (5'-chloro-2'-cyclopropyl)-2-phenoxymethyl-Δ2-imidazoline], the solubility in water entry in the data set “Solubility in water” was “not very soluble in water”. Moreover, in data set [2], the “Relative power towards Cirazoline” value was 1.72, the “potency relative to Cirazoline” value is “about 1.75 times”, the “potency relative to Fenoxazoline” value was “three” and the ED50 was determined as 0.644 ± 0.050 µg/kg. In addition, in [5], the “appearance of hydrolysis product (amino-amide (V)) in aqueous solution” value is recorded as “even after one month, no trace of hydrolysis is yet detectable”.

With `Cc1ccc(C2CC2)c(OCC2=NCCN2)c1` [ND 83201, (5'-methyl-2'-cyclopropyl)-2-phenyloxymethyl-Δ2-imidazoline], in the data set with β-adrenoceptor, the “ED50 change after β-adrenoceptor antagonist / β-adrenoceptor postsynaptic agonist activity” value is “not modified”. In addition, the solubility in water result in the data set “Solubility in water” is on record as “not very soluble in water”. In data set [1], the “Heartbeat frequency … (supramaximal tachycardia)” value was 448.7 ± 7.7; the “Heartbeat frequency … after clonidine” value stood at 391.2 ± 5.9; the “restoration of submaximal tachycardia / presynaptic α2-adrenoceptor antagonist activity” value is “no presynaptic α2 -adrenoceptor antagonist activity and no effect and no”. For the same molecule, in data set [2], the “Relative power towards Cirazoline” value is 1.75, the “ED50 (before antagonists)” value amounted to 0.630 ± 0.060 µg/kg, the “potency relative to Cirazoline” value is “about 1.75 times” and the “potency relative to Fenoxazoline” value is on record as “three”. In addition, the ED50 in data set [2] came to 0.630 ± 0.060 µg/kg. In data set [3] (prazosine 20 μg/kg/min./5 min.), the ED50 after prazosine was determined as 7.284 ± 0.974 µg/kg and the “ED50 after / ED50 before prazosine” value is given as 11.56. Moreover, the “nature of agonist effect (postsynaptic α1-adrenoceptor)” value in [3] (in words) is “specific and direct postsynaptic α1 -adrenoceptor agonist effects”. Further, the “antagonism of vasoconstrictor effect by prazosine” value in data set [3] (in words, prazosine 20 μg/kg/min./5 min.) is “strongly antagonized by prazosine and even slightly more than those of Cirazoline and Fenoxazoline”. For the same molecule, the “effect of reserpine pre-treatment” value with α1-adrenoceptor is reported as “not, except in very high doses, modified”. Also, in data set [6], the “effect on induced submaximal tachycardia / presynaptic α2-adrenoceptor agonist activity” value is “completey devoid of any presynaptic α2 -adrenoceptor agonist activity and no”. For the same molecule, the “effect on induced submaximal tachycardia / presynaptic α2-adrenoceptor agonist activity” value in data set [6] (listed as ND 83 201) is “no presynaptic α2 -adrenoceptor agonist activity”. Besides, in data set [7], the ED50 after yohimbine was found to be 0.805 ± 0.076 µg/kg, the “postsynaptic α2-adrenoceptor agonist properties” value is “no postsynaptic α2-adrenoceptor agonist”, the “antagonism of vasoconstrictor effect by yohimbine” value is “almost not antagonized by yohimbine” and the “ED50 after / ED50 before yohimbine” value came to 1.25.

In the case of `Cc1ccc(N(CC2=NCCN2)c2cccc(O)c2)cc1` [Phentolamine], in [1], the “Heartbeat frequency … (supramaximal tachycardia)” value was 455.6 ± 11.5; the “Heartbeat frequency … after clonidine” value turned out to be 411.2 ± 8.9; the “restoration of submaximal tachycardia / presynaptic α2-adrenoceptor antagonist activity” value was “resores sub-maximal tachycardia”.

Take `Clc1cccc(Cl)c1N=C1NCCN1` [clonidine]: the “effect on induced submaximal tachycardia / presynaptic α2-adrenoceptor agonist activity” value in [6] is “reduced the submaximal tachycardia”. In data set [6] (submaximal tachycardia), the “antagonism of clonidine effect by yohimbine” value is recorded as “effect antagonized by yohimbine”.
